{
  "source": "paper PMC11984905",
  "about": "“Chiral Switch of Gadopiclenol: New Standards in MRI Probes” (Advanced Science, 2025)",
  "assay_type_in_all_cases": "physicochemical",
  "key": {"[1]": {"assay": "1H NMRD profiles and 17O NMR relaxometry in water", "conditions": "for ^298K r 1 [1.5 T] / r 1 ^310K [1.5 T]: water; for ER / q: fixed in the fitting procedure; for q: number of coordinated water molecules; for τ M1: residence time of coordinated water 1, 298 K; for τ M2: residence time of coordinated water 2, 298 K; for ^SS q: second-sphere water molecules at 3.6 Å; for ^298K r 1 [1.5 T] / ^SS q: 298 K", "description": "(§1) The magnetic‐field dependence of the longitudinal relaxation rate of water protons (^1H NMRD) were measured in aqueous solution by using a variable field relaxometer equipped with an HTS‐110 3T Metrology Cryogen‐free Superconducting Magnet (Mede, Italy), operating in the overall range of proton Larmor frequencies of 20–120 MHz (0.47–3.00 T). The measurements were performed using the standard inversion recovery sequence (20 experiments, 3 scans) with a 90° pulse width of 3.5 µs. The temperature was controlled with a Stelar VTC‐91 heater airflow. Additional points in the 0.01–10 MHz frequency range were collected on a Fast‐Field Cycling (FFC) Stelar SmarTracer Relaxometer. T 1 values at 500 MHz were collected on a Bruker Avance III NMR spectrometer operating at 11.7 T. The concentration of Gd^3+ in the solutions was determined by using bulk magnetic susceptibility (BMS) shift measurements performed at 11.7 T. For the measurements in the biological fluid, lyophilized plasma matrix (Siemens Healthcare) was added to 1 mL of [Gd(ent‐L2)] (1.0 mM) or Seronorm (Sero) was solubilized in 5 mL [Gd(ent‐L2)] (1.0 mM) solution. ^1H NMRD of the final solution was measured at 310 K.\nThe spectra were acquired on a Bruker Avance III spectrometer (11.7 T) using a 5 mm probe under temperature control. An aqueous solution of the complexes ([GdL] = 10–15 mM) was enriched to ca. 2.0% of the ^17O isotope (Cambridge Isotope). The transverse relaxation rates (R 2) were measured as a function of temperature in the 278−350 K range. The simultaneous fit of ^1H NMRD and ^17O NMR profiles data was performed using the Micromath Scientist software (version 2.0, Salt Lake City, UT, USA)."}, "[2]": {"assay": "Kinetic inertness: dissociation of Gd(III)-complexes in 0.01–1.0 M HCl followed by HPLC", "conditions": "for k d at pH = 7.4: dissociation rate calculated at pH 7.4, 25 °C; for k1: proton-assisted dissociation, 25 °C, [H+]≤0.15 M: [Na+]+[H+]=0.15 M; for acid-catalyzed dissociation, times slower than Gd(III)-complex with BT-DO3A / acid-catalyzed dissociation, times slower than Gd(III)-complex with HP-DO3A: ratio of k1", "excerpt": "The kinetic inertness of the Gd(III)‐complexes with the different isomers formed by rac‐L1 and rac‐L2 was characterized by the rates of the dissociation reactions taking place in 0.01–1.0 M HCl solution. The dissociation reactions were followed by measuring the integral values of the Gd(III)‐complexes with the different isomers of rac‐L1 and rac‐L2 ligands with HPLC. The conditions of the HPLC experiments for the kinetic studies of the Gd(III)‐complexes with rac‐L1 and rac‐L2 ligands are summarized in Tables S1 and S2 (Supporting Information), respectively. The samples were kept at 25 °C in a well‐closed vessel. For the HPLC analysis, 100 µL samples were withdrawn from the solutions. The measurements were performed with 0.2 mM solution of Gd(III)‐complexes. The pseudo‐first‐order rate constants (k d) were calculated by fitting the HPLC integral – t data pairs to Equation (1). (1) At=Ar−Ave^−kdt+Av where A r, A v, and A t are the integral values of the reactants, the product, and reaction time t. The temperature was maintained at 25 °C and the ionic strength of the solutions was kept constant at [H^+]≤0.15 M, [HCl]+[NaCl] = 0.15 M. The calculation of the kinetic parameters was performed by the fitting of the absorbance – time and relaxation rate – time data pairs with the Micromath Scientist computer program (version 2.0, Salt Lake City, UT, USA).\nThe dissociation reactions of Gd(III)-complexes with the different isomers formed by rac-L1 and rac-L2 have been studied by HPLC method (Tables S1 and S2) at 25 °C in 0.01 – 1.0 M HCl solution to guarantee the pseudo-first-order kinetic condition. Area values as a function of time for the dissociation reactions of Gd(III)-complexes formed with the different stereoisomers of rac-L1 obtained at 25 °C in 1.0 M HCl solution are shown in Figure S48.\nIn the presence of HCl excess, the decomplexation of Gd(III)-complexes can be treated as a pseudo-first-order process and the reaction rate can be expressed by Equation (S9), where kd is a pseudo-first-order rate constant, [GdL]t and [GdL]tot are the concentrations of the GdL species at time t and the total concentration of the complex, respectively.\nThe rates of the dissociation reactions have been studied at different concentrations of HCl ([HCl]=0.01 – 1.0 M, 25 °C). The kd values obtained for the Gd(III)-complexes with the different isomers of rac-L1 and rac-L2 ligands as a function of [H^+] are shown in Figures S49 and S50.\nThe obtained kd pseudo-first order rate constants are directly proportional to the concentration of H^+. The increase in the kd values with increasing concentration of H^+ can be interpreted in terms of the proton assisted dissociation of Gd(III)-complexes. […] The proton assisted dissociation of Gd(III)-complexes might be explained by the equilibrium formation of a protonated *Gd(HL) intermediate (Equation (S11)), which dissociates spontaneously (Equation (12)).\nwhere k0, and k1 = kGdHL×K^HGdHL are the rate constants characterizing the spontaneous and proton-assisted dissociation of Gd(III)-complexes. The protonation constant (K^HGdHL) of Gd(DOTA)-like complexes are very small (Gd(DOTA): K^HGdHL =14).^[22] By considering very low protonation constant of Gd(III)-complexes with A, C and D isomers of rac-L1 and A’, C’ and D’ isomers of rac-L2 ligands (K^HGdHL<<10), the denominator of Equation (S14) (1>> K^HGdHL [H^+]) can be neglected, so Equation (S14) can be simplified in the form of Equation (S15). The k0 and k1 values of the Gd(III) complexes with A, C and D isomers of rac-L1, and A’, C’ and D’ isomers of rac-L2 ligands have been calculated by fitting of the kinetic data (Figures S49 and S50) to Equation (S15).\nThe k1 rate and logK^HGdHL protonation constants characterizing the acid-catalyzed decomplexation of Gd(III)-complexes formed with the different stereoisomers of rac-L1 and rac-L2 are presented and compared with those of [Gd(PCTA)], [Gd(DOTA)]^-, [Gd(HP-DO3A)] and [Gd(BT-DO3A)] in Table S19."}, "[3]": {"assay": "Relaxivity (NMRD) in saline solution, human plasma and Seronorm at 310 K", "description": "as §1"}},
  "note": "Where “and” joins values, the source holds several entries; their conditions need not be identical. Equal values may be shown once. Marks after values point to notes of the source that are not given here.",
  "data": [
    {"smiles": "O=C([O-])CCC(C(=O)[O-])N1CCN(C(CCC(=O)[O-])C(=O)[O-])Cc2cccc(n2)CN(C(CCC(=O)[O-])C(=O)[O-])CC1.[Gd+3]", "note": "(racemic) [[Gd(ent‐L1)]^3−]", "values": [
      {"measurement": "r 1 difference between [Gd(rac-L1)]3− and [Gd(ent-L1)]3−", "setting": "[1]", "value": 18, "unit": "%"},
      {"measurement": "^298K r 1 [1.5 T]", "setting": "[1]", "value": 10.9, "unit": "mM⁻¹ s⁻¹"},
      {"measurement": "r 1 ^310K [1.5 T]", "setting": "[1]", "value": 8.6, "unit": "mM⁻¹ s⁻¹"},
      {"measurement": "τ R", "setting": "[1]; Table 2", "value": "96 ± 3", "unit": "ps"},
      {"measurement": "τ R", "setting": "[1]; Table S20, 298 K", "value": "96±3", "unit": "ps"},
      {"measurement": "ER", "setting": "[1]", "value": "22^b) kJ mol^-1"},
      {"measurement": "q", "setting": "[1]", "value": 2},
      {"measurement": "q", "setting": "[1]; listed as [Gd(ent-L1)]^3-", "value": "2^b)"},
      {"measurement": "τ M1", "setting": "[1]", "value": "144 ± 4", "unit": "ns"},
      {"measurement": "τ M2", "setting": "[1]", "value": "58 ± 5", "unit": "ns"},
      {"measurement": "^SS q", "setting": "[1]", "value": "2.5 ± 0.1"},
      {"measurement": "^SS q", "setting": "[1]; listed as [Gd(ent‐L1)]^3⁻", "value": 2.5},
      {"measurement": "k d at pH = 7.4", "setting": "[2]; listed as RRR/SSS (C)", "value": "RRR/SSS (C): 5.61 × 10^−14 s^−1"},
      {"measurement": "k d at pH = 7.4", "setting": "[2]; listed as [Gd(rac-L1)] C (RRR/SSS)", "value": "5.61×10^-14 s^−1"},
      {"measurement": "k1", "setting": "[2]", "value": "(1.4±0.1) ×10^-6 M^-1s^-1"}
    ]},
    {"smiles": "O=C(CCC(C(=O)[O-])N1CCN(C(CCC(=O)NCC(O)CO)C(=O)[O-])Cc2cccc(n2)CN(C(CCC(=O)NCC(O)CO)C(=O)[O-])CC1)NCC(O)CO.[Gd+3]", "note": "(stereo not drawn) [[Gd(ent‐L2)]]", "values": [
      {"measurement": "r 1 higher than [Gd(PCTA)]", "setting": "[1]", "value": 175, "unit": "%"},
      {"measurement": "r 1 increase compared to [Gd(DOTA)]−", "setting": "[1]", "value": 309, "unit": "%"},
      {"measurement": "relaxivity, times higher than that of currently used GBCAs", "setting": "[1]", "value": "2 to 3", "unit": "times"},
      {"measurement": "^298K r 1 [1.5 T]", "setting": "[1]", "value": 16.5, "unit": "mM⁻¹ s⁻¹"},
      {"measurement": "r 1 ^310K [1.5 T]", "setting": "[1]", "value": 12.6, "unit": "mM⁻¹ s⁻¹"},
      {"measurement": "τ R", "setting": "[1]; Table 2", "value": "127 ± 4", "unit": "ps"},
      {"measurement": "τ R", "setting": "[1]; Table S20, 298 K", "value": "127±4", "unit": "ps"},
      {"measurement": "ER", "setting": "[1]", "value": "22^b) kJ mol^-1"},
      {"measurement": "q", "setting": "[1]", "value": 2},
      {"measurement": "q", "setting": "[1]; listed as [Gd(ent-L2)]", "value": "2^b"},
      {"measurement": "τ M1", "setting": "[1]", "value": "155 ± 3", "unit": "ns"},
      {"measurement": "τ M2", "setting": "[1]", "value": "77 ± 5", "unit": "ns"},
      {"measurement": "^SS q", "setting": "[1]", "value": "4.5 and 4.5 ± 0.2"},
      {"measurement": "k d at pH = 7.4", "setting": "[2]; listed as RRR/SSS (D′)", "value": "RRR/SSS (D′): 1.74 × 10^−13 s^−1"},
      {"measurement": "k d at pH = 7.4", "setting": "[2]; listed as [Gd(rac-L2)] D’ (RRR/SSS)", "value": "1.74×10^-13 s^−1"},
      {"measurement": "k1", "setting": "[2]", "value": "(4.4±0.2) ×10^-6 M^-1s^-1"},
      {"measurement": "plasma protein binding", "setting": "[3]", "value": "lack of plasma protein binding"},
      {"measurement": "r1", "setting": "[3]; 0.47 T, human plasma, 310 K", "value": "13.6 ± 0.1", "unit": "mM⁻¹ s⁻¹"},
      {"measurement": "r1", "setting": "[3]; 0.47 T, saline solution, 310 K", "value": "12.6 ± 0.1", "unit": "mM⁻¹ s⁻¹"},
      {"measurement": "r1", "setting": "[3]; 1.41 T, human plasma, 310 K", "value": "13.4 ± 0.2", "unit": "mM⁻¹ s⁻¹"},
      {"measurement": "r1", "setting": "[3]; 1.41 T, saline solution, 310 K", "value": "12.6 ± 0.1", "unit": "mM⁻¹ s⁻¹"},
      {"measurement": "r1", "setting": "[3]; 3 T, human plasma, 310 K", "value": "13.1 ± 0.2", "unit": "mM⁻¹ s⁻¹"},
      {"measurement": "r1", "setting": "[3]; 3 T, saline solution, 310 K", "value": "12.4 ± 0.1", "unit": "mM⁻¹ s⁻¹"},
      {"measurement": "r 1 relative to that of [Gd(BT-DO3A)] (Gadovist)", "setting": "[3]; 37 °C and 3 T", "value": "more than two times higher"},
      {"measurement": "change in relaxivity (NMRD profile) in human plasma and in Seronorm", "setting": "[3]; 310 K, vs water", "value": "negligible changes in relaxivity"}
    ]},
    {"smiles": "O=C(O)CCC(C(=O)O)N1CCN(C(CCC(=O)O)C(=O)O)Cc2cccc(n2)CN(C(CCC(=O)O)C(=O)O)CC1", "note": "(stereo not drawn) [ent‐L1]", "values": [
      {"measurement": "acid-catalyzed dissociation, times slower than Gd(III)-complex with BT-DO3A", "setting": "[2]", "value": 24, "unit": "times"},
      {"measurement": "acid-catalyzed dissociation, times slower than Gd(III)-complex with HP-DO3A", "setting": "[2]", "value": 207, "unit": "times"}
    ]},
    {"smiles": "O=C(CCC(C(=O)O)N1CCN(C(CCC(=O)NCC(O)CO)C(=O)O)Cc2cccc(n2)CN(C(CCC(=O)NCC(O)CO)C(=O)O)CC1)NCC(O)CO", "note": "(stereo not drawn) [ent‐L2]", "values": [
      {"measurement": "acid-catalyzed dissociation, times slower than Gd(III)-complex with BT-DO3A", "setting": "[2]", "value": 7, "unit": "times"},
      {"measurement": "acid-catalyzed dissociation, times slower than Gd(III)-complex with HP-DO3A", "setting": "[2]", "value": 66, "unit": "times"}
    ]}
  ]
}
